Structures can show the parent of a compound that is named as a salt. Where two headings read alike, the source gives them in different places.

The test system of data set [1] is XMRV collected from 22Rv1 prostate cancer cells. The data set can be described thus: Anti-XMRV cytoprotection assay in PG-4 cells (XTT). In kind it is cell-based, xenotropic murine retrovirus (XMRV). How it is done:
The test materials were evaluated in PG-4 cells against XMRV collected from the cell-free supernatant of 22Rv1 prostate cancer cells using a complete dose response curve. The experimental details and results are discussed below.
Test materials (CMX157 K^+ salt and Tenofovir) were solubilized at 40 mM and 10 mM in water, respectively, and stored at −20° C. Test materials were evaluated using a 1 μM high test concentration and serially diluted in half-log increments for the in vitro antiviral assay (SOW104-11-01). A second assay was performed (SOW104-11-02) using a 1 μM high test concentration for CMX157, but an increased high test concentration of 100 μM for tenofovir. Ribavirin was purchased from Sigma and used as a positive control compound.
(§1) PG-cells (ATCC# CRL-2032; feline astrocytes) were passaged in T-75 flasks in McCoy's 5A medium supplemented with 10% heat inactivated fetal bovine serum, 2 mmol/L L-glutamine, 100 U/ml penicillin and 100 μg/ml streptomycin prior to use in the antiviral assay. On the day preceding the assay, cells were split 1:2 to assure they were in an exponential growth phase at the time of infection. Total cell and viability quantification were performed using a hemocytometer and Trypan Blue dye exclusion. Cell viability was to be greater than 95% for the cells to be utilized in the assay. The cells were resuspended at 5×10^4 cells per ml (SOW104-11-01) or 1×10^5 cells per mL (SOW104-11-02) in tissue culture medium and added to flat bottom microtiter plates in a volume of 100 μI for overnight incubation at 37° C./5% CO2.
(§2) Serial half-log dilutions were performed. Media was removed from the cell monolayer and 100 μL of 2× concentrations of compound-containing media (DMEM supplemented with 2% FBS, 2 mmol/L L-glutamine, 100 U/ml penicillin and 100 μg/ml streptomycin for SOW104-11-01 or PG-4 cell culture medium for SOW104-11-02) was transferred to the 96-well microtiter plate.
The XMRV virus was collected from the cell-free supernatant of 22Rv1 human prostate cancer cells (ATCC# CRL-2505). A pretitered aliquot of virus was removed from the freezer (−80° C.) and allowed to thaw in a biological safety cabinet. The virus was diluted into 2% FBS assay medium such that the amount of virus added to each well in a volume of 100 μl is the amount determined to yield 85 to 95% cell killing at six days post infection (based on optical density values) for SOW104-11-01. PG-4 cell culture medium was used to dilute virus in a volume of 100 μl is the amount determined to yield 85 to 95% cell killing at six days post infection for SOW104-11-02.
(§3) Inhibition of virus induced cytopathic effects (CPE) was quantified by measuring the reduction of the tetrazolium dye XTT (2,3-bis(2-methoxy-4-nitro-5-sulfophenyl)-5-[(phenylamino)carbonyl]-2H-tetrazoIium hydroxide). XTT in metabolically active cells is metabolized by the mitochondrial enzyme NADPH oxidase to a soluble formazan product. XTT solution was prepared daily as a stock of 1 mg/mL in PBS. Phenazine methosulfate (PMS) solution was prepared at 0.15 mg/mL in PBS and stored in the dark at −20° C. XTT/PMS stock was prepared immediately before use by adding 40 μL of PMS per mL of XTT solution. 50 μL of XTT/PMS was added to each well of the plate and the plate incubated for 4 h at 37° C. The 4 h incubation has been empirically determined to be within the linear response range for XTT dye reduction with the indicated numbers of cells for each assay. Adhesive plate sealers were used in place of the lids, the sealed plate was inverted several times to mix the soluble formazan product and the plate was read at 450 nm (650 nm reference wavelength) with a Molecular Devices SpectraMax Plus 384 96 well plate format spectrophotometer.
Raw data was collected from the Softmax Pro 4.6 software and imported into a Microsoft Excel XLfit4 spreadsheet to analyze (four parameter curve fit analysis) and graph the data. […] The EC50, EC90, TC50 and TC90 are expressed means±standard deviation.
Background: Tetrazolium assays rely on reduction of a dye to a coloured formazan, in cell work by metabolically active cells.

The test system of a further data set is XMRV. The data set can be described thus: Anti-XMRV activity assay in LNCaP cells (6 day assay). In kind it is cell-based. From the text:
(§4) Specifically, the anti-XMRV activity assay was completed in LNCaP cells (6 day assay) according to the methods described in PLoS ONE, volume 5 (4), April 2010, e9948, pages 1-7.

A short description of data set [2]: Cytotoxicity in LNCaP cells. It is filed as cell-based. Particulars: human. On the procedure: as §4
(§5) The cytotoxicity of CMX157 in LNCaP cells was also tested.

The format of data set [3] is physicochemical. As to conditions: general statement, see Example 2. How it is done: Stability testing was performed for CMX157 and its salts to investigate the quality of the compound over time under various environments. Accelerated conditions were established using an Isotemp Vacuum Oven set at either 40° C. or 60° C. If high humidity was needed, a saturated solution of sodium chloride created an air state containing about 75% humidity.
For determining the amount of CMX157 present in the samples within the stability study, a reference standard of a known purity was used. […] For analysis, 40 mg of samples and standards are dissolved in 100.0 mL diluent (80 H2O: 20 Methanol: 2 NH4OH). Separation of the drug substance and impurities was achieved using a mobile phase gradient (Table 1) on a Shimadzu A20 HPLC with a Phenomenex Synergi Polar RP 4μ 150×3 mm column. By comparing the areas for the samples at wavelength of 259 nm (kmax) to that of the reference standard, the percentage of CMX157 was determined.

The nature of data set [4]: Cytotoxicity in PG-4 cells (XTT, TC50). As to conditions: cat. In kind it is cell-based, feline. How it is done: as §1, §2, §3
(§6) Raw data was collected from the Softmax Pro 4.6 software and imported into a Microsoft Excel XLfit4 spreadsheet to analyze (four parameter curve fit analysis) and graph the data. Using Microsoft Excel, EC50 and EC90 (50% and 90% inhibition of virus replication), TC50 and TC90 (50% and 90% reduction in cell viability) and a therapeutic index (TI, TC50/EC50 and TC90/EC90) are provided. The EC50, EC90, TC50 and TC90 are expressed means±standard deviation. The significant figure is three digits. Raw data for both antiviral activity and toxicity with a graphic representation of the data are provided in a printout summarizing the individual compound activity.

Another data set has as its system PG-4 cells. The data set can be described thus: Cytotoxicity in PG-4 cells (XTT, TC50). In kind it is cell-based, feline. On the procedure:
as §1, §2, §3, §6

For another data set, the system named is LNCaP cells. The data set can be described thus: Cytotoxicity in LNCaP cells. It is filed as cell-based. As to conditions: LNCaP cells. On the procedure:
as §4, §5

[5] abbreviates: unidentified retrovirus, 22Rv1, in Mus musculus, read-out: PG-4/XMRV EC50, assay SOW104-11-01: 5×10^4 cells per ml, DMEM 2% FBS.
[6] abbreviates: unidentified retrovirus, 22Rv1, in Mus musculus, read-out: PG-4/XMRV EC50, assay SOW104-11-02: 1×10^5 cells per mL, PG-4 cell culture medium.
Setting [7] is: unidentified retrovirus, 22Rv1, in Mus musculus, read-out: PG-4/XMRV EC50, third determination listed in Table 3, run not stated.
Where [8] appears, read: third determination listed in Table 3, run not given.
The mark [9] stands for this setting: LNCaP cells, read-out: Cytotoxicity (IC50) LNCaP cells.

Consider `Cc1cn([C@H]2C[C@H](N=[N+]=[N-])[C@@H](CO)O2)c(=O)[nH]c1=O` [AZT, 3′-azido-2′,3′-dideoxythymidine], for which the EC50 stood at 800 nM in data set [1] (setting [5]), 70 nM in data set [1] (setting [6]), 600 nM in data set [1] (setting [7]) and 8.1 ± 11 nM in the data set on XMRV (144 h). Also, the EC90 (usually the point of the concentration-response curve where the effect stands at 90%) in the data set with XMRV (144 h) was 55 ± 51 nM. The IC50 (as a rule, the concentration that inhibits the measured activity by half) in data set [2] was more than 100 µM.
Regarding `CCCCCCCCCCCCCCCCOCCCOP(=O)(O)CO[C@H](C)Cn1cnc2c(N)ncnc21` [CMX157, 3-(hexadecyloxy)propyl hydrogen ((R)-1-(6-amino-9H-purin 9-yl)propan-2-yloxy)methylphosphonate], the “stability in words, free acid versus salts” value in data set [3] is given as “relatively unstable”. In data set [1] (XMRV in vitro, versus AZT), the “EC50 lower than AZT” value was “approximately 20 fold”. Besides, the “EC50 lower than TFV” value in data set [1] (XMRV in vitro, versus TFV) is recorded as approximately 800 fold. Moreover, the “Therapeutic Index (TC50/EC50)” value in data set [1] (assay SOW104-11-01) is 10.0; in data set [1] (assay SOW104-11-02), more than 333.0; in data set [1] (setting [8]), 97.8. The EC50 in data set [1] (setting [5]) was found to be 40 nM; in data set [1] (setting [6]) it was 3 nM; in data set [1] (setting [7]) it was 60 nM; in the data set on XMRV (144 h) it was 3.1 ± 2.1 nM. In addition, the CC50 is 400 nM in data set [4] (assay SOW104-11-01, read-out: PG-4 TC50); more than 1000 nM in data set [4] (assay SOW104-11-02, read-out: PG-4 TC50); 5900 nM in data set [4] (third determination listed in Table 3, run not given, read-out: PG-4 TC50). Further, the 90% effect concentration (EC90) in the data set on XMRV (144 h) is 37 ± 16 nM. Further, in data set [2] (setting [9]), the IC50 was more than 100 µM.
For `CC(C)(C)NC(=O)[C@@H]1CN(Cc2cccnc2)CCN1C[C@@H](O)C[C@@H](Cc1ccccc1)C(=O)N[C@H]1c2ccccc2C[C@H]1O` [IDV (Indinavir)], the “Therapeutic Index (TC50/EC50)” value in data set [1] (assay SOW104-11-02) worked out at 2.7. For the same molecule, the EC50 in data set [1] (setting [6]) is 800 nM. Also, the CC50 in data set [4] (PG-4 TC50) came to 2200 nM.
Regarding `Cc1nnc(C(=O)NC(C)(C)c2nc(C(=O)NCc3ccc(F)cc3)c(O)c(=O)n2C)o1` [Raltegravir], in the data set on XMRV (144 h), the EC50 is 0.54 ± 0.57 nM and the 90% effect level (EC90) was put at 3.2 ± 2.9 nM. Moreover, in data set [2] (setting [9]), the half-inhibitory concentration (IC50) is more than 100 µM.
Consider `NC(=O)c1ncn([C@@H]2O[C@H](CO)[C@@H](O)[C@H]2O)n1` [Ribavirin, 1-β-D-ribofuranosyl-1,2,4-triazole-3-carboxamide], for which, in data set [1] (assay SOW104-11-01), the “Therapeutic Index (TC50/EC50)” value was 6.5. The EC50 in data set [1] (unidentified retrovirus, 22Rv1, in Mus musculus, read-out: PG-4/XMRV EC50, Ribavirin in μg/mL, control of SOW104-11-01) was 10.1 µg/mL. Further, the “PG-4 TC50” value with PG-4 cells (cat) was 65.2 µg/mL.
Regarding `CC(C)OC(=O)OCOP(=O)(CO[C@H](C)Cn1cnc2c(N)ncnc21)OCOC(=O)OC(C)C` [Tenofovir disoproxil fumarate, 2,4,6,8-Tetraoxa-5-phosphanonanedioic acid, 5-[[(1R)-2-(6-amino-9H-purin-9-yl)-1-methylethoxy]methyl]-, bis(1-methylethyl)ester, 5-oxide, (2E)-2-butenedioate (1:1)], in the data set on XMRV (144 h), the EC50 stood at 29 ± 26 nM and the 90% effect level (EC90) was put at 210 ± 150 nM. Besides, half-maximal inhibition in data set [2] (IC50) was put at 87.4 µM.
With `C[C@H](Cn1cnc2c(N)ncnc21)OCP(=O)(O)O` [Tenofovir, (R)-9-(2-phosphonylmethoxypropyl)adenine], the EC50 in data set [1] (assay SOW104-11-01: 5×10^4 cells per ml, DMEM 2% FBS, read-out: PG-4/XMRV EC50) was more than 1000 nM; in data set [1] (assay SOW104-11-02: 1×10^5 cells per mL, PG-4 cell culture medium, read-out: PG-4/XMRV EC50), 2400 nM; in data set [1] (third determination listed in Table 3, run not given, read-out: PG-4/XMRV EC50), 2600 nM; with XMRV, 4500 ± 3800 nM. The “Therapeutic Index (TC50/EC50)” value is on record as more than 41.5 in data set [1] (assay SOW104-11-02) and more than 38.6 in data set [1] (setting [8]). The CC50 in the data set on PG-4 cells (assay SOW104-11-01) is more than 1 µM; in the data set on PG-4 cells (assay SOW104-11-02), more than 100 µM; in the data set on PG-4 cells (setting [8]), more than 100 µM. The molecule also displayed an EC90 in the data set on XMRV of 17400 ± 9000 nM. In the data set with LNCaP cells, this molecule displayed an IC50 of more than 100 µM.

(Values after US9006218B2, “Nucleoside phosphonate salts” (Chimerix Inc., priority 2010, dated 2015).)
